Values of other authors in US20140343076A1, “PHARMACEUTICAL COMPOSITIONS OF LURASIDONE” (Cadila Healthcare Limited, priority 2013, published 2014).
Structures can show the parent of a compound that is named as a salt.

solubility in water: less than several
SMILES: O=C1[C@@H]2[C@H]3CC[C@H](C3)[C@@H]2C(=O)N1C[C@@H]1CCCC[C@H]1CN1CCN(c2nsc3ccccc23)CC1 [lurasidone, N-[4-[4-(1,2-benzisothiazol-3-yl)-1-piperazinyl]-(2R,3R)-2,3-tetramethylene-butyl]-(1′R,2′S,3′R,4′S)-2,3-bicyclo[2,2,1]heptanedicarboxyimide hydrochloride]
